From patent publication US6362369B1, “Phthalic acid diamide derivatives fluorine-containing aniline compounds as starting material, agricultural and horticultural insecticides, and a method for application of the insecticides” (Nihon Nohyaku Co., Ltd., priority 1997, dated 2002)

Columns and labels:
Assay type in all cases: in vivo
[1] = system: diamondback moth (Plutella xylostella); assay: Insecticidal effect on diamondback moth (Test Example 1); conditions: for Insecticidal effect on diamondback moth (Test Example 1), judged grade: mortality judged according to the criterion shown in Test Example 1; for Insecticidal effect, Test Example 1 / Insecticidal effect (Test Example 1), judged from mortality: diamondback moth; for Insecticidal effect (Test Example 1), judged from mortality: judged by the criterion of Test Example 1
Outline: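 Chinese cabbage seedlings carrying eggs laid by released adult moths were immersed in treatment, air-dried and held at 25° C. Hatched insects were counted six days after immersion, and mortality was calculated and scored against a fixed criterion. Three replicate groups of 10 insects were used.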

[2] = system: rice leafroller (Cnaphalocrocis medinalis); assay: Insecticidal effect on rice leafroller (Test Example 3); conditions: 500 ppm, 25° C., humidity 70%; for Insecticidal effect on rice leafroller (Test Example 3), judged grade / Insecticidal effect (Test Example 3), judged from mortality: rice lamina dip; for Insecticidal effect on rice leafroller (Test Example 3), judged grade: third-instar larvae; for Insecticidal effect on rice leafroller (Test Example 3), judged grade / Insecticidal effect, Test Example 3: four days after inoculation; for Insecticidal effect, Test Example 3: rice lamina immersed; for Insecticidal effect (Test Example 3), judged from mortality: 4 days after inoculation
Outline: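 Groups of 10 third-instar larvae, in triplicate, are placed on air-dried lamina resting on wet filter paper. Incubation runs four days at 25° C with 70% humidity before survivors and dead are tallied.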

[3] = system: common cutworm (Spodoptera Litura); assay: Insecticidal effect on common cutworm (Test Example 2); conditions: 500 ppm, 25° C.; for Insecticidal effect on common cutworm (Test Example 2), judged grade / Insecticidal effect (Test Example 2), judged from mortality: cabbage leaf dip; for Insecticidal effect on common cutworm (Test Example 2), judged grade: second-instar larvae; for Insecticidal effect on common cutworm (Test Example 2), judged grade / Insecticidal effect, Test Example 2: eight days after inoculation; for Insecticidal effect, Test Example 2: cabbage leaf immersed; for Insecticidal effect (Test Example 2), judged from mortality: 8 days after inoculation
Outline: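 2nd-instar larvae on air-dried treatment, closed dish, 25° C; dead/alive counted at day 8. Mortality calculated, graded by criterion. 3 × 10 insects.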

[4] = mortality judged by criterion of Test Example 1
[5] = rice leafroller third-instar larvae
[6] = common cutworm second-instar larvae
[7] = judged by the mortality criterion of Test Example 1
[8] = third-instar larvae of rice leafroller
[9] = second-instar larvae of common cutworm

## Cc1cc(Cl)ccc1NC(=O)c1ccc(F)cc1C(=O)NC(C)C [compound 529]
[1]
  Insecticidal effect on diamondback moth (Test Example 1), judged grade: A (100)
[2]
  Insecticidal effect on rice leafroller (Test Example 3), judged grade: A (100)
[3]
  Insecticidal effect on common cutworm (Test Example 2), judged grade: D (79-50)

## CCCN(CCC)C(=O)c1c(I)cccc1C(=O)Nc1ccc(C(F)(F)C(F)(F)F)cc1C [compound 1044]
[1]; [4]
  Insecticidal effect, Test Example 1: A (100)
[2]; [5]
  Insecticidal effect, Test Example 3: A (100)
[3]; [6]
  Insecticidal effect, Test Example 2: A (100)

## CC(C)NC(=O)c1cccc(I)c1C(=O)Nc1ccc(SC(F)F)cc1 [compound 421]
[1]; [7]
  Insecticidal effect, Test Example 1: A (100)
[2]; [8]
  Insecticidal effect, Test Example 3: A (100)
[3]; [9]
  Insecticidal effect, Test Example 2: B (99-90)

## CCc1cc(C(F)(F)C(F)(F)F)ccc1NC(=O)c1cccc(F)c1C(=O)N(CC)CC [compound 1549]
[1]
  Insecticidal effect (Test Example 1), judged from mortality: A (100)
[2]; [8]
  Insecticidal effect (Test Example 3), judged from mortality: A (100)
[3]; [9]
  Insecticidal effect (Test Example 2), judged from mortality: D (79-50)

## Cc1cc(Cl)ccc1NC(=O)c1c(Cl)cccc1C(=O)NC(C)C [compound 214]
[1]; [7]
  Insecticidal effect, Test Example 1: A (100)
[2]; [8]
  Insecticidal effect, Test Example 3: A (100)
[3]; [9]
  Insecticidal effect, Test Example 2: A (100)

## Cc1cc(OC(F)(F)C(F)F)ccc1NC(=O)c1cccc(F)c1C(=O)NC(C)C [compound 512]
[1]
  Insecticidal effect on diamondback moth (Test Example 1), judged grade: A (100)
[2]
  Insecticidal effect on rice leafroller (Test Example 3), judged grade: A (100)
[3]
  Insecticidal effect on common cutworm (Test Example 2), judged grade: A (100)

## CC(C)(C)NC(=O)c1c(F)cccc1C(=O)Nc1ccc(C(F)(F)C(F)(F)F)cc1F [compound 1507]
[1]
  Insecticidal effect (Test Example 1), judged from mortality: A (100)
[2]; [8]
  Insecticidal effect (Test Example 3), judged from mortality: A (100)
[3]; [9]
  Insecticidal effect (Test Example 2), judged from mortality: A (100)

## CCN(CC)C(=O)c1c(Cl)cccc1C(=O)Nc1ccc(OC(F)F)cc1C [compound 1538]
[1]
  Insecticidal effect (Test Example 1), judged from mortality: A (100)
[2]; [8]
  Insecticidal effect (Test Example 3), judged from mortality: A (100)
[3]; [9]
  Insecticidal effect (Test Example 2), judged from mortality: A (100)

## CCN(CC)C(=O)c1cc(Cl)ccc1C(=O)Nc1ccc(C(F)(F)C(F)(F)F)cc1C [compound 1280]
[1]; [4]
  Insecticidal effect, Test Example 1: A (100)
[2]; [5]
  Insecticidal effect, Test Example 3: A (100)
[3]; [6]
  Insecticidal effect, Test Example 2: A (100)

## CC(C)NC(=O)c1ccccc1C(=O)Nc1ccc(C(O)(C(F)(F)F)C(F)(F)F)cc1 [compound 978]
[1]; [4]
  Insecticidal effect, Test Example 1: A (100)
[2]; [5]
  Insecticidal effect, Test Example 3: A (100)
[3]; [6]
  Insecticidal effect, Test Example 2: C (89-80)

## Cc1cc(C(F)(F)C(F)(F)C(F)(F)F)ccc1NC(=O)c1c(I)cccc1C(=O)NC(C)C [compound 438]
[1]; [7]
  Insecticidal effect, Test Example 1: A (100)
[2]; [8]
  Insecticidal effect, Test Example 3: A (100)
[3]; [9]
  Insecticidal effect, Test Example 2: B (99-90)

## CCC(C)(C)NC(=O)c1c(F)cccc1C(=O)Nc1ccc(C(F)(C(F)(F)F)C(F)(F)F)cc1C [compound 1153]
[1]; [4]
  Insecticidal effect, Test Example 1: A (100)
[2]; [5]
  Insecticidal effect, Test Example 3: A (100)
[3]; [6]
  Insecticidal effect, Test Example 2: A (100)

## Cc1cc(C(F)(F)C(F)(F)F)ccc1NC(=O)c1cccc(Cl)c1C(=O)NCCCO [compound 1399]
[1]; [4]
  Insecticidal effect, Test Example 1: A (100)
[2]; [5]
  Insecticidal effect, Test Example 3: A (100)
[3]; [6]
  Insecticidal effect, Test Example 2: A (100)

## Cc1c(NC(=O)c2cccc([N+](=O)[O-])c2C(=O)NC(C)C)cccc1OC(F)F [compound 695]
[1]
  Insecticidal effect on diamondback moth (Test Example 1), judged grade: A (100)
[2]
  Insecticidal effect on rice leafroller (Test Example 3), judged grade: A (100)
[3]
  Insecticidal effect on common cutworm (Test Example 2), judged grade: A (100)

## Cc1ccc(F)cc1NC(=O)c1cccc(F)c1C(=O)NC(C)C [compound 493]
[1]
  Insecticidal effect on diamondback moth (Test Example 1), judged grade: A (100)
[2]
  Insecticidal effect on rice leafroller (Test Example 3), judged grade: A (100)
[3]
  Insecticidal effect on common cutworm (Test Example 2), judged grade: A (100)

## CC(C)NC(=O)c1c(I)cccc1C(=O)Nc1ccc(C(F)(F)C(F)(F)C(F)(F)F)cc1Cl [compound 407]
[1]; [7]
  Insecticidal effect, Test Example 1: A (100)
[2]; [8]
  Insecticidal effect, Test Example 3: A (100)
[3]; [9]
  Insecticidal effect, Test Example 2: A (100)
